Patent EP4793274A1, “SALT AND CRYSTAL FORM OF KIF18A INHIBITOR COMPOUND, PREPARATION METHOD THEREFOR AND USE THEREOF” (Hubei Bio-Pharmaceutical Industrial Technological Institute …, priority 2023, dated 2025)
Structures can show the parent of a compound that is named as a salt. Where two headings read alike, the source gives them in different places.

How the values were obtained:
[1] = Dynamic solubility at 37 °C in H2O, SGF, FaSSIF and FeSSIF (HPLC concentration, pH of filtrate, XRPD of residual solid); assay type: physicochemical; settings: for solubility at 1 h / solubility at 2 h / solubility at 4 h / solubility at 24 h: feeding concentration 10 mg/mL, read-out: S: solubility; for FC: crystal form change: XRPD of residual solid; for FC: crystal form change / pH: listed as Crystal form B of sulfate; for pH: pH of filtrate
Procedure: 0.82 mL of glacial acetic acid and 1.18 g of NaCl were added to a 100 mL volumetric flask and completely dissolved by addition of purified water.
The solubility of each sample in H2O, SGF, FaSSIF, and FeSSIF was determined at different time points (1 h, 2 h, 4 h, and 24 h). […] 137-156. […] Table C-2. Summary of dynamic solubility test results at 37 °C

[2] = Hygroscopicity by dynamic vapor sorption (DVS); assay type: physicochemical; settings: 25 °C/80% RH
Procedure: Dynamic vapor sorption (DVS) curves were acquired on a DVS IntrInsic from Surface Measurement Systems (SMS). The relative humidity at 25 °C was corrected with the deliquescence points of LiCl, Mg(NO3)2, and KCl. Table A-5. DVS test parameters
The percentage changes in mass of the samples when the humidity changed (0% RH to 95% RH) at a constant temperature of 25 °C were collected. 157-166.

[3] = Solid state stability (XRPD and HPLC purity); assay type: physicochemical; settings: listed as Crystal form B of sulfate
Description: 167-171. […] Table C-3. Summary of solid state stability evaluation

[4] = Solubility at room temperature in water, SGF and FaSSIF (HPLC concentration, pH of filtrate, XRPD of residual solid); settings: for pH: pH of filtrate, listed as Crystal form B of sulfate
Procedure: (§1) 100 mg of NaCl and 50 mg of Triton X-100 were weighed into a 50 mL volumetric flask and then completely dissolved by addition of purified water. 816 µL of 1 M hydrochloric acid was added, and the pH was adjusted to 1.8 with 1 M hydrochloric acid or 1 M NaOH solution. The mixed solution was brought to the volume by addition of purified water.
(§2) 340 mg of anhydrous NaH2PO4 and 620 mg of NaCl were weighed into a 100 mL volumetric flask, and then completely dissolved by addition of purified water. 55.44 µL of a 50% NaOH solution was then added, and the pH was adjusted to 6.5 with 1 M hydrochloric acid or 1 M NaOH solution. The mixed solution was brought to the volume by addition of purified water. Subsequently, 110 mg of SIF powder was weighed into a 50 mL volumetric flask and completely dissolved in the solution described above, and the mixed solution was brought to the volume.
(§3) Solids at a feeding concentration of 1 mg/mL (calculated based on free crystal form) were rotationally mixed with corresponding vehicles at room temperature. […] After sampling at each time point, the samples were centrifuged (at 10000 rpm) and filtered (through a 0.22 µm PTFE filter head), the HPLC concentrations and pH values of the filtrates were determined, and the centrifuged solid samples were subjected to XRPD analysis.

Procedure for physchem: as §1, §2, §3

**Q.** For `Cc1cc(-c2cnn(-c3ccc(NS(=O)(=O)CCO)cc3N3CCC4(CC3)CC4)c2)nc(N2CCC(F)(F)CC2)n1` [crystal form B of the sulfate], which solubility at 1 h ([1]; FaSSIF, 1 h) is on record?
**A.** 53.9 µg/mL

**Q.** And the solubility at 2 h ([1]; FaSSIF, 2 h)?
**A.** 36.4 µg/mL

**Q.** And the solubility at 4 h ([1]; FaSSIF, 4 h)?
**A.** 28.1 µg/mL

**Q.** What about the solubility at 24 h ([1]; FaSSIF, 24 h) of the same compound?
**A.** 13.6 µg/mL

**Q.** What about the solubility at 1 h ([1]; FeSSIF, 1 h) of the same compound?
**A.** 194 µg/mL

**Q.** And the solubility at 2 h ([1]; FeSSIF, 2 h)?
**A.** 186 µg/mL

**Q.** What about the solubility at 4 h ([1]; FeSSIF, 4 h) of the same compound?
**A.** 166 µg/mL

**Q.** And the solubility at 24 h ([1]; FeSSIF, 24 h)?
**A.** 79 µg/mL

**Q.** What about the solubility at 1 h ([1]; SGF, 1 h) of the same compound?
**A.** 147 µg/mL

**Q.** What about the solubility at 2 h ([1]; SGF, 2 h) of the same compound?
**A.** 82.4 µg/mL

**Q.** What about the solubility at 4 h ([1]; SGF, 4 h) of the same compound?
**A.** 18.1 µg/mL

**Q.** And the solubility at 24 h ([1]; SGF, 24 h)?
**A.** 18.5 µg/mL

**Q.** What about the “FC: crystal form change” value ([1]; FaSSIF, 1 h) of the same compound?
**A.** Yes

**Q.** And the “FC: crystal form change” value ([1]; FaSSIF, 2 h)?
**A.** Yes

**Q.** And the “FC: crystal form change” value ([1]; FaSSIF, 4 h)?
**A.** Yes

**Q.** And the “FC: crystal form change” value ([1]; FaSSIF, 24 h)?
**A.** Yes

**Q.** What about the “FC: crystal form change” value ([1]; FeSSIF, 1 h) of the same compound?
**A.** Yes

**Q.** And the “FC: crystal form change” value ([1]; FeSSIF, 2 h)?
**A.** Yes

**Q.** What about the “FC: crystal form change” value ([1]; FeSSIF, 4 h) of the same compound?
**A.** Yes

**Q.** What about the “FC: crystal form change” value ([1]; FeSSIF, 24 h) of the same compound?
**A.** Yes

**Q.** What about the “FC: crystal form change” value ([1]; H2O, 1 h) of the same compound?
**A.** Yes

**Q.** What about the “FC: crystal form change” value ([1]; H2O, 2 h) of the same compound?
**A.** Yes

**Q.** And the “FC: crystal form change” value ([1]; H2O, 4 h)?
**A.** Yes

**Q.** What about the “FC: crystal form change” value ([1]; H2O, 24 h) of the same compound?
**A.** Yes

**Q.** What about the “FC: crystal form change” value ([1]; SGF, 1 h) of the same compound?
**A.** Yes

**Q.** What about the “FC: crystal form change” value ([1]; SGF, 2 h) of the same compound?
**A.** Yes

**Q.** What about the “FC: crystal form change” value ([1]; SGF, 4 h) of the same compound?
**A.** Yes

**Q.** What about the “FC: crystal form change” value ([1]; SGF, 24 h) of the same compound?
**A.** Yes

**Q.** What about the pH ([1]; FaSSIF, 1 h) of the same compound?
**A.** 2.06

**Q.** And the pH ([1]; FaSSIF, 2 h)?
**A.** 2.13

**Q.** And the pH ([1]; FaSSIF, 4 h)?
**A.** 2.07

**Q.** And the pH ([1]; FaSSIF, 24 h)?
**A.** 2.08

**Q.** What about the pH ([1]; FeSSIF, 1 h) of the same compound?
**A.** 4.50

**Q.** What about the pH ([1]; FeSSIF, 2 h) of the same compound?
**A.** 4.49

**Q.** What about the pH ([1]; FeSSIF, 4 h) of the same compound?
**A.** 4.48

**Q.** What about the pH ([1]; FeSSIF, 24 h) of the same compound?
**A.** 4.48

**Q.** What about the pH ([1]; H2O, 1 h) of the same compound?
**A.** 1.50

**Q.** And the pH ([1]; H2O, 24 h)?
**A.** 1.56

**Q.** What about the solubility at 1 h ([1]; water, H2O, 1 h) of the same compound?
**A.** 38.2 µg/mL

**Q.** And the solubility at 2 h ([1]; water, H2O, 2 h)?
**A.** 18 µg/mL

**Q.** What about the solubility at 4 h ([1]; water, H2O, 4 h) of the same compound?
**A.** 11.1 µg/mL

**Q.** And the solubility at 24 h ([1]; water, H2O, 24 h)?
**A.** 3 µg/mL

**Q.** What about the vapor sorption values [2] of the same compound?
**A.** 0.445%

**Q.** What about the “HPLC results Purity (area%)” value ([3]; 25 °C/60% RH/open, 1 week) of the same compound?
**A.** 97.97 area%

**Q.** What about the “HPLC results Purity (area%)” value ([3]; 40 °C/75% RH/open, 1 week) of the same compound?
**A.** 97.98 area%

**Q.** And the “HPLC results Purity (area%)” value ([3]; 80 °C/sealed, 1 day)?
**A.** 97.98 area%

**Q.** What about the “HPLC results Relative to starting (%)” value ([3]; 80 °C/sealed, 1 day) of the same compound?
**A.** 100.0%

**Q.** What about the “HPLC results Purity (area%)” value ([3]; Starting) of the same compound?
**A.** 98.00 area%

**Q.** What about the Crystal form ([3]; XRPD after 25 °C/60% RH/open, 1 week) of the same compound?
**A.** Crystal form B of sulfate

**Q.** And the Crystal form ([3]; XRPD after 40 °C/75% RH/open, 1 week)?
**A.** Crystal form B of sulfate

**Q.** And the Crystal form ([3]; XRPD after 80 °C/sealed, 1 day)?
**A.** Crystal form B of sulfate

**Q.** What about the solubility at 2 h (physchem; fassif) of the same compound?
**A.** 61.6 µg/mL

**Q.** And the solubility at 24 h (physchem; fassif)?
**A.** 33.8 µg/mL

**Q.** And the solubility at 2 h (physchem; sgf)?
**A.** 54.5 µg/mL

**Q.** And the solubility at 24 h (physchem; sgf)?
**A.** 25 µg/mL

**Q.** And the solubility at 24 h (physchem; water)?
**A.** 0.1 µg/mL

**Q.** What about the “S: solubility” value ([4]; H2O, 2 h, feeding concentration 1 mg/mL) of the same compound?
**A.** <LOQ

**Q.** What about the pH ([4]; FaSSIF, 2 h) of the same compound?
**A.** 6.3

**Q.** And the pH ([4]; FaSSIF, 24 h)?
**A.** 6.2

**Q.** What about the pH ([4]; H2O, 2 h) of the same compound?
**A.** 2.7

**Q.** And the pH ([4]; H2O, 24 h)?
**A.** 2.5

**Q.** What about the pH ([4]; SGF, 2 h) of the same compound?
**A.** 1.8

**Q.** And the pH ([4]; SGF, 24 h)?
**A.** 1.8
